≈ marks a conversion by molar mass, not a printed value. Like-named read-outs stand apart in the source and are kept apart here.
Experiments:
[1] = system: E. coli, Edwardsiella tarda, S. enterica enterica Typhimurium, and S. flexneri; assay: MIC against susceptible gram-negative strains; type: cell-based; conditions: read-out: MICs against susceptible gram-negative strains
gram-positive strains = assay: MIC against all 9 gram-positive strains tested; type: cell-based; conditions: read-out: MIC values against all 9 gram-positive strains tested
[2] = system: gyrR strains derived from E. coli JW5503; assay: MIC against the five gyrR strains derived from E. coli JW5503; type: cell-based; conditions: Escherichia coli, read-out: MIC against gyrR strains
[3] = system: E. coli cells, overexpression (gyrA/gyrB) (+/+); assay: microbe, parasite or virus in culture; type: cell-based; conditions: Escherichia coli, induction + (IPTG)
E. coli cells = conditions: cited from earlier work
[4] = target: DNA gyrase ATPase activity (Escherichia coli, UniProt P0AES4+P0AES6); assay: ATPase activity of DNA gyrase; type: biochemical, E. coli; conditions: up to a concentration of 100 μM
DNA gyrase ATPase activity, sequence (P0AES4 whole entry, one chain of several): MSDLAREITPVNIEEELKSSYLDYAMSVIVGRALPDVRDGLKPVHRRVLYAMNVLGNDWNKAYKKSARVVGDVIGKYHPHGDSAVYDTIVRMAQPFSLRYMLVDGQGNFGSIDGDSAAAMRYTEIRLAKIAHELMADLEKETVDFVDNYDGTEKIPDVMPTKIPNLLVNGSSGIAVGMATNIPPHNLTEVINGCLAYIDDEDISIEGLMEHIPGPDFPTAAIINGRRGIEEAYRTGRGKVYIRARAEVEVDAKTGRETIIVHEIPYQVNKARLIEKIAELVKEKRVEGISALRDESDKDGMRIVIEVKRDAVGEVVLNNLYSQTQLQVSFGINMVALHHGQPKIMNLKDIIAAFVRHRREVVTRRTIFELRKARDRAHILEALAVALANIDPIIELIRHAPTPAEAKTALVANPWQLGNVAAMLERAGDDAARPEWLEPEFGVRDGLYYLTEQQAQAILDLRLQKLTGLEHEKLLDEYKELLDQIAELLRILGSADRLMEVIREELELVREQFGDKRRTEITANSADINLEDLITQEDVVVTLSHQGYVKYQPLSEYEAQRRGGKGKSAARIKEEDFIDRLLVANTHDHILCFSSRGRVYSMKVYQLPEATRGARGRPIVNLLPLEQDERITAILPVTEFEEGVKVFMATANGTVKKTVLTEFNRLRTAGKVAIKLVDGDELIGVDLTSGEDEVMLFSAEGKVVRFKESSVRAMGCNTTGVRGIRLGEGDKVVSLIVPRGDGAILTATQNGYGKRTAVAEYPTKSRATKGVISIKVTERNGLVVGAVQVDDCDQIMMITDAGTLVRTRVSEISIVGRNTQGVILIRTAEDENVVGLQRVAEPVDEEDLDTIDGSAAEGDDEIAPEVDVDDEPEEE

E. coli JW5503 = conditions: cited from earlier work
E. coli BW25113 = conditions: wild-type E. coli BW25113; cited from earlier work
[5] = system: E. coli JW5503 harboring pCA24N-gyrB; type: cell-based

`Cc1ccc(C(F)(F)F)cc1S(=O)(=O)N[C@@H]1CCN(Cc2ccc(OC3CC3)cc2)C1` [Compound 4, (R)-N-(1-(4-cyclopropoxybenzyl)pyrrolidin-3-yl)-2-methyl-5-(trifluoromethyl)benzenesulfonamide] showed an MIC [1] of 2 to 16 µg/mL (≈ 4.4 to 35.2 µM) and an MIC (gram-positive strains) of 4 to 16 µg/mL (≈ 8.8 to 35.2 µM).

In the case of `O=C(O)c1cn(C2CC2)c2cc(N3CCNCC3)c(F)cc2c1=O` [Compound 1, Ciprofloxacin], the MIC [2] is given as 1.6 to 3.2 µg/mL (≈ 4.83 to 9.66 µM), the MIC [3] is given as 0.002 µg/mL and the MIC (E. coli cells; E. coli cells before overexpression of DNA gyrase) is given as 0.009 µg/mL (≈ 0.0272 µM). The MIC (E. coli cells; E. coli cells with overexpression of DNA gyrase) was 0.002 µg/mL (≈ 0.00604 µM) and the “inhibition of ATPase activity” value [4] was “did not observe a decrease in ATPase activity”.

In the case of `Cc1ccc(F)cc1S(=O)(=O)N[C@@H]1CCN(Cc2ccc(-c3ccccc3)cc2)C1` [Compound 8, gyramide C], the MIC (E. coli JW5503) is listed as 0.1 µg/mL (≈ 0.236 µM) and the MIC (E. coli BW25113) is listed as greater than 160 µg/mL.

In the case of `N#Cc1cccc(S(=O)(=O)N[C@@H]2CCN(Cc3ccc(-c4ccccc4)cc3)C2)c1` [Compound 3, (R)-N-(1-([1,1′-biphenyl]-4-ylmethyl)pyrrolidin-3-yl)-3-cyanobenzenesulfonamide], the MIC [1] is reported as 2 to 16 µg/mL (≈ 4.79 to 38.3 µM) and the “inhibition of ATPase activity” value [4] is reported as “did not inhibit the ATPase activity”.

`Cc1ccc(C#N)cc1S(=O)(=O)N[C@@H]1CCN(Cc2ccc(-c3ccccc3)cc2)C1` [Compound 5, (R)-N-(1-([1,1′-biphenyl]-4-ylmethyl)pyrrolidin-3-yl)-5-cyano-2-methylbenzenesulfonamide] showed an MIC [1] of 2 to 16 µg/mL (≈ 4.63 to 37.1 µM).

For `CO[C@@H]1[C@@H](OC(N)=O)[C@@H](O)[C@H](Oc2ccc3c(O)c(NC(=O)c4ccc(O)c(CC=C(C)C)c4)c(=O)oc3c2C)OC1(C)C` [Compound 2, Novobiocin], the “highest concentration at which cultures grew” value [5] was 51 µg/mL.
